How the values were obtained:
Type in all cases: toxicity, cell-based
U2OS = assay: Incucyte cell viability with U2OS; settings: human, 10 µM, compound concentration 10 uM
HEK-293T = assay: Incucyte cell viability with HEK293T; settings: human, 10 µM, compound concentration 10 uM
Fibroblast = assay: Incucyte cell viability with human fibroblast; settings: 10 µM, compound concentration 10 uM
[1] = 0 h, replicate number 2, timepoint 0 hours
[2] = 24 h, replicate number 2, timepoint 24 hours
[3] = 6 h, replicate number 1, timepoint 6 hours
[4] = 6 h, replicate number 2, timepoint 6 hours
[5] = 12 h, replicate number 1, timepoint 12 hours
[6] = 12 h, replicate number 2, timepoint 12 hours
[7] = 18 h, replicate number 1, timepoint 18 hours
[8] = 18 h, replicate number 2, timepoint 18 hours
[9] = 24 h, replicate number 1, timepoint 24 hours
[10] = 0 h, replicate number 1, timepoint 0 hours
Also: unitless GR value; below 1 slowed growth and below 0 cell loss.

Structure (SMILES) | Growth Rate (U2OS; [1]) | Growth Rate (U2OS; [2]) | Growth Rate (HEK-293T; [3]) | Growth Rate (HEK-293T; [4]) | Growth Rate (HEK-293T; [5]) | Growth Rate (HEK-293T; [6]) | Growth Rate (HEK-293T; [7]) | Growth Rate (HEK-293T; [8]) | Growth Rate (HEK-293T; [9]) | Growth Rate (Fibroblast; [10]) | Growth Rate (Fibroblast; [3]) | Growth Rate (Fibroblast; [7]) | Growth Rate (Fibroblast; [8]) | Growth Rate (Fibroblast; [9]) | Growth Rate (Fibroblast; [2]) | Growth Rate (Fibroblast; [5]) | Growth Rate (U2OS; [10]) | Growth Rate (U2OS; [3]) | Growth Rate (U2OS; [4]) | Growth Rate (U2OS; [8]) | other results
Cc1cc(Cn2cnc3c2C[C@@H](C(=O)O)N(C(=O)C(c2ccccc2)c2ccccc2)C3)ccc1N(C)C | 0.34 | 0.97 | 0.56 | 0.61 | 0.72 | 0.75 | 0.7 | 0.99 | 0.85 | 0.15 | 0.22 | 0.53 | 0.97 | 0.39 | 0.88 | – | – | – | – | – | –
CN1CCN(c2nc3cc(C(F)(F)F)ccc3n3cccc23)CC1.O=C(O)/C=C\C(=O)O.O=C(O)/C=C\C(=O)O | -1 | – | 0.89 | 0.57 | – | 0.87 | – | 0.7 | 0.8 | 0.87 | 0.24 | 0.98 | – | – | – | 0.72 | – | – | – | – | –
Cn1cc(-c2ccc3occ(-c4cccc(-c5ccncc5)c4)c3n2)cn1 | – | 0.09 | -0.87 | -0.61 | -0.67 | -0.44 | -0.56 | -0.33 | -0.43 | – | -0.96 | -0.87 | -0.23 | -0.84 | 0.02 | -0.95 | -0.88 | -0.02 | -0.14 | 0.09 | Growth Rate (U2OS; [5]): -0.03; Growth Rate (U2OS; [6]): -0.05; Growth Rate (U2OS; [7]): -0.03; Growth Rate (U2OS; [9]): -0.02; Growth Rate (HEK-293T; [2]): -0.32; Growth Rate (Fibroblast; [6]): -0.62
CN[C@@H]1Cc2cccc3[nH]c(=O)n(c23)C1.O=C(O)/C=C\C(=O)O | -1 | 0.98 | 0.74 | 0.88 | – | – | 0.9 | 0.98 | 0.79 | – | -0.17 | 0.81 | – | 0.5 | – | 0.68 | 0.11 | – | – | 0.85 | Growth Rate (U2OS; [7]): 0.71; Growth Rate (U2OS; [9]): 0.89; Growth Rate (Fibroblast; [4]): 0.8
Cc1cccc(NC(=O)CN2CCC(c3ccccn3)CC2)c1.Cl.Cl | -1 | – | 0.47 | 0.66 | 0.79 | 0.97 | – | 0.98 | – | – | 0.02 | 0.48 | – | 0.77 | – | 0.19 | – | – | – | – | Growth Rate (Fibroblast; [1]): 0.72
Cc1nc2ccc(Oc3ccc(F)cc3)cc2c(=O)n1C[C@H]1CCCN(C(C)C)C1.Cl | – | – | 0.01 | 0.52 | -0.18 | 0.29 | -0.23 | 0.13 | -0.2 | – | -0.24 | -0.42 | -0.21 | -0.38 | -0.28 | -0.26 | – | -0.6 | 0.98 | 0.96 | Growth Rate (U2OS; [6]): 0.97; Growth Rate (HEK-293T; [2]): -0.05; Growth Rate (Fibroblast; [4]): -0.65; Growth Rate (Fibroblast; [6]): -0.42
